Experimental data as given in ChEMBL document CHEMBL4265951, “Multi-target-directed ligands for Alzheimer's disease: Discovery of chromone-based monoamine oxidase/cholinesterase inhibitors” (Eur J Med Chem, 2018).
Active and inactive are the calls of the source. No cut-off for these calls is given here.

Experiments:
SH-SY5Y [1] = assay: Cytotoxicity against human SH-SY5Y cells assessed as reduction in cell viability at 0.1 to 50 uM after 48 hrs by resazurin reduction assay; format: cell-based
[2] = target: T1, Amine oxidase [flavin-containing] B (Homo sapiens, UniProt P27338); assay: biochemical; format: cell-based
T1 sequence (P27338 whole entry): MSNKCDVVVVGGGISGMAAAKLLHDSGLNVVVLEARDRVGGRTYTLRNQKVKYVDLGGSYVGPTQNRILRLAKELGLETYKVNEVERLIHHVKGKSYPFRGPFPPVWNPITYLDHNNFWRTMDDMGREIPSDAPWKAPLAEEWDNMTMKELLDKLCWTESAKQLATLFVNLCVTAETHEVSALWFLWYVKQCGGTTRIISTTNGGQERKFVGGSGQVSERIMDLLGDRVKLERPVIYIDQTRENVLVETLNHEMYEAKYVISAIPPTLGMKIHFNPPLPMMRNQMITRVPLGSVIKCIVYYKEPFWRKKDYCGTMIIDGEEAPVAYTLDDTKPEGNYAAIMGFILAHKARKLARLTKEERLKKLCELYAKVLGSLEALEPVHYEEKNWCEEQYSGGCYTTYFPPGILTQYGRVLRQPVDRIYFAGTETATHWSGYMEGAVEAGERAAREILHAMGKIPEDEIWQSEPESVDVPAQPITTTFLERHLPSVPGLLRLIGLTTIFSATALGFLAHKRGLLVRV
Description: Inhibition of human recombinant MAOB expressed in baculovirus infected BTI-TN-5B1- 4 cells using p-tyramine as substrate assessed as decrease in H2O2 production by amplex red-based fluorescence assay

SH-SY5Y [3] = assay: Cytotoxicity against human SH-SY5Y cells assessed as reduction in cell viability at 0.1 to 50 uM after 48 hrs by SRB assay; format: cell-based
Cholinesterase [4] = target: T2, Cholinesterase (Homo sapiens, UniProt P06276); assay: Inhibition of human serum BuChE using butyrylthiocholine as substrate pretreated for 5 mins followed by substrate addition measured after 5 mins by Ellman's method
[5] = target: T1, Amine oxidase [flavin-containing] B; assay: Competitive inhibition of human recombinant microsomal MAOB expressed in baculovirus infected BTI-TN-5B1- 4 cells using p-tyramine as substrate assessed as decrease in H2O2 production at 500 to 1000 nM by Lineweaver-Burk plot analysis
in vitro [6] = conditions: PAMPA
Description: Effective permeability of the compound at 1 mg/ml after 4 hrs by BBB-PAMPA method

HepG2 [7] = assay: Cytotoxicity against human HepG2 cells assessed as reduction in cell viability at 0.1 to 50 uM after 48 hrs by resazurin reduction assay; format: cell-based; conditions: hepg2, 48 h
Acetylcholinesterase [8] = target: T3, Acetylcholinesterase (Homo sapiens, UniProt P22303); assay: Inhibition of human AChE using acetylthiocholine iodide as substrate pretreated for 5 mins followed by substrate addition measured after 5 mins by Ellman's method
HepG2 [9] = assay: Cytotoxicity against human HepG2 cells assessed as reduction in cell viability at 0.1 to 50 uM after 48 hrs by SRB assay; format: cell-based; conditions: hepg2, 48 h
[10] = target: T1, Amine oxidase [flavin-containing] B; assay: Reversible competitive inhibition of human recombinant microsomal MAOB expressed in baculovirus infected BTI-TN-5B1- 4 cells using p-tyramine as substrate assessed as decrease in H2O2 production by Dixon plot analysis
[11] = target: T4, Amine oxidase [flavin-containing] A (Homo sapiens, UniProt P21397); assay: Inhibition of human recombinant microsomal MAOA expressed in baculovirus infected BTI-TN-5B1- 4 cells using p-tyramine as substrate assessed as decrease in H2O2 production at 10 uM by amplex red-based fluorescence assay
T4 sequence (P21397 whole entry): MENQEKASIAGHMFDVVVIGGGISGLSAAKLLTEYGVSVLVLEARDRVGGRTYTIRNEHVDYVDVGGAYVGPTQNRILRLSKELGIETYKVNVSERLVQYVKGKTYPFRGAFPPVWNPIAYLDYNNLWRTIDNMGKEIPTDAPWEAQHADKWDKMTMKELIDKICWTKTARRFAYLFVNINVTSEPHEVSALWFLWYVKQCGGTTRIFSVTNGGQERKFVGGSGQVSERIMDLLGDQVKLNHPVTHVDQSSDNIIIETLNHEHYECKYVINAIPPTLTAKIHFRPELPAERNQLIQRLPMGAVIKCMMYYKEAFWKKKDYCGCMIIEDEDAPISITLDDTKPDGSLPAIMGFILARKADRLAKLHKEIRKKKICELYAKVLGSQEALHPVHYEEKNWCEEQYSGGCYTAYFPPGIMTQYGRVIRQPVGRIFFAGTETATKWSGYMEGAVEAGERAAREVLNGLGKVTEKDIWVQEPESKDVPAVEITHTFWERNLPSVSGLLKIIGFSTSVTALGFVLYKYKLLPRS

Beta-secretase 1 = Beta-secretase 1 (Homo sapiens, UniProt P56817); assay: Inhibition of human BACE1 using rhodamine-EVNLDAEFK-quencher as substrate after 60 mins by FRET assay
Cholinesterase [12] = target: T2, Cholinesterase; assay: Inhibition of human serum BuChE at 10 uM using butyrylthiocholine as substrate pretreated for 5 mins followed by substrate addition measured after 5 mins by Ellman's method
Acetylcholinesterase [13] = target: T3, Acetylcholinesterase; assay: Mixed type inhibition of human AChE at 0.05 to 0.20 uM using acetylthiocholine iodide as substrate pretreated for 5 mins followed by substrate addition measured after 5 mins by Lineweaver burk plot analysis
Acetylcholinesterase [14] = target: T3, Acetylcholinesterase; assay: Mixed type inhibition of human AChE using acetylthiocholine iodide as substrate pretreated for 5 mins followed by substrate addition measured after 5 mins by Dixon plot analysis
[15] = Cytotoxicity against human SH-SY5Y cells assessed as cell mass at 50 uM after 48 hrs by SRB assay relative to control; format: cell-based; conditions: read-out: Activity
[16] = target: T4, Amine oxidase [flavin-containing] A; assay: biochemical
Description: Inhibition of human recombinant microsomal MAOA expressed in baculovirus infected BTI-TN-5B1- 4 cells using p-tyramine as substrate assessed as decrease in H2O2 production by amplex red-based fluorescence assay

SH-SY5Y [17] = assay: Cytotoxicity against human SH-SY5Y cells assessed as reduction in cell viability at 25 to 50 uM after 48 hrs by resazurin reduction assay; format: cell-based
[18] = target: T4, Amine oxidase [flavin-containing] A; assay: Reversible competitive inhibition of human recombinant microsomal MAOA expressed in baculovirus infected BTI-TN-5B1- 4 cells using p-tyramine as substrate assessed as decrease in H2O2 production by Dixon plot analysis
[19] = target: T4, Amine oxidase [flavin-containing] A; assay: Competitive inhibition of human recombinant microsomal MAOA expressed in baculovirus infected BTI-TN-5B1- 4 cells using p-tyramine as substrate assessed as decrease in H2O2 production at 1000 to 2000 nM by Lineweaver-Burk plot analysis
[20] = target: T4, Amine oxidase [flavin-containing] A; assay: Reversible inhibition of human recombinant microsomal MAOA expressed in baculovirus infected BTI-TN-5B1- 4 cells using p-tyramine as substrate assessed as decrease in H2O2 production at IC80 after 60 mins; conditions: 1 h
[21] = target: T4, Amine oxidase [flavin-containing] A; assay: Inhibition of human recombinant microsomal MAOA expressed in baculovirus infected BTI-TN-5B1- 4 cells using p-tyramine as substrate assessed as decrease in H2O2 production at 100 uM by amplex red-based fluorescence assay
in vitro [22] = conditions: PAMPA; remark: listed apart in the source
Description: Effective permeability of the compound at 25 ug/ml after 18 hrs by BBB-PAMPA method

T2 sequence (P06276 whole entry): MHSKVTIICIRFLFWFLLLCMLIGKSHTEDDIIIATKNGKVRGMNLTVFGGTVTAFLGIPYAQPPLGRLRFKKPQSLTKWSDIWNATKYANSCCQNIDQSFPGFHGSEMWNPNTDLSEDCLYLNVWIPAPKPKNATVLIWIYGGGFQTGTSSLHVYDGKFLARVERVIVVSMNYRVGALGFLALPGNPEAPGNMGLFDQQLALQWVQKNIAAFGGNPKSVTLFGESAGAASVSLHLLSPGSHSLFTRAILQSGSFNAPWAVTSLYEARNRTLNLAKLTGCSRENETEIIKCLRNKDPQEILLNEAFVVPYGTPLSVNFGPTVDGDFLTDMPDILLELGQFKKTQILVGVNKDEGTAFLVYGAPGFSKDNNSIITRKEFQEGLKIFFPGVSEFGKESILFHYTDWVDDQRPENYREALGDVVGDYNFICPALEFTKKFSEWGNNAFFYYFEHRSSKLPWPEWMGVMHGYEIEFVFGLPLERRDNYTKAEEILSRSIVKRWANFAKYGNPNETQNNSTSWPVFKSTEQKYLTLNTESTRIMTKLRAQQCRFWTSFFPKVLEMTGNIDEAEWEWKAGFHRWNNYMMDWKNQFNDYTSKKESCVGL
Sequence of Beta-secretase 1 (P56817 whole entry): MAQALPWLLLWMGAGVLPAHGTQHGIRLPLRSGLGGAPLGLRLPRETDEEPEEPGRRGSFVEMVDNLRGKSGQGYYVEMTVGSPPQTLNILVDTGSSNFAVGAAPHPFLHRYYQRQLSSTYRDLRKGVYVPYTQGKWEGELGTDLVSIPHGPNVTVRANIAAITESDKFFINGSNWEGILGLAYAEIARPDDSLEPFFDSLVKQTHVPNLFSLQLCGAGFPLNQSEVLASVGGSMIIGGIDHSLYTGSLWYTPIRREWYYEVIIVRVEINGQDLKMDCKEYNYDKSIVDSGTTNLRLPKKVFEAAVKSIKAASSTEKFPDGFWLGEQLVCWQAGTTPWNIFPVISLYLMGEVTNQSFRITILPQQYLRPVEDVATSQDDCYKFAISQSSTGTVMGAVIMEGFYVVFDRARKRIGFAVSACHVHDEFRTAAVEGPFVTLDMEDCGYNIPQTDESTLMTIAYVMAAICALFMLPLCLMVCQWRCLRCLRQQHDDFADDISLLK
T3 sequence (P22303 whole entry): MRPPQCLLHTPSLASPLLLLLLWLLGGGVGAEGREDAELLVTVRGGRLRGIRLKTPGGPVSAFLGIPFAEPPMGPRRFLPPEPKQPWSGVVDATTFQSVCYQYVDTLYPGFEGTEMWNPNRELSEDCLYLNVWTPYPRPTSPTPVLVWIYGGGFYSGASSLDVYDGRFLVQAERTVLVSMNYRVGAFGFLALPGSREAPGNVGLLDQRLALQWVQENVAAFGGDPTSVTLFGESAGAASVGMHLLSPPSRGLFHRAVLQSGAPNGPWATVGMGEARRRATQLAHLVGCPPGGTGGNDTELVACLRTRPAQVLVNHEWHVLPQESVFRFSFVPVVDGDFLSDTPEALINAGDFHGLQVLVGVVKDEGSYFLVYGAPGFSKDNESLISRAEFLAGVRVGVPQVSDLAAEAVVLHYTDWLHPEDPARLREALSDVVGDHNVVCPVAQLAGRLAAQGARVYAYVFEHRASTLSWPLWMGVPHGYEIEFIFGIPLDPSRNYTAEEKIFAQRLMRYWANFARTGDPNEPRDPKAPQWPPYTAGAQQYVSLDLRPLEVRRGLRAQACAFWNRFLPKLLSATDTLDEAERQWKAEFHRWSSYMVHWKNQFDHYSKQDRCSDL

| Structure (SMILES) | Activity (SH-SY5Y [1]) | IC50 [2] | Activity (SH-SY5Y [3]) | inhibition (INH) [5] | Papp at 4 h, 1 mg/ml (in vitro [6]) | Activity (HepG2 [7]) | IC50 (Acetylcholinesterase [8]) | Activity (HepG2 [9]) | Ki [10] | inhibition (INH) [11] | IC50 (Beta-secretase 1) | inhibition (Cholinesterase [12]) | further results |
| --- | --- | --- | --- | --- | --- | --- | --- | --- | --- | --- | --- | --- | --- |
| CN(C)CCOC(=O)/C=C/c1ccc2occ(C(=O)Nc3ccccc3)c(=O)c2c1 | Non-Toxic | 0.63 µM | Non-Toxic | Active | 64 nm/s | Non-Toxic | 3.69 µM | Non-Toxic | 0.337 µM | Not Active | > 10 µM | – | IC50 (Cholinesterase [4]): 4.32 µM |
| O=C(O)/C=C/c1ccc2occ(C(=O)Nc3ccccc3)c(=O)c2c1 | Non-Toxic | 4.66 µM | Non-Toxic | – | 12 nm/s | Non-Toxic | 9.25 µM | Non-Toxic | – | Not Active | > 10 µM | inactive | – |
| Cc1ccc(NC(=O)c2cc(=O)c3cc(/C=C/C(=O)OCCN(C)C)ccc3o2)cc1 | – | 3.81 µM | – | Active | 52 nm/s | – | 0.21 µM | – | 0.478 µM | – | > 10 µM | inactive | inhibition (Acetylcholinesterase [13]): Active; Ki (Acetylcholinesterase [14]): 0.19 µM; viability at 48 h, 50 µM [15]: 44%; IC50 [16]: 0.94 µM; Activity (SH-SY5Y [17]): Toxic; Ki [18]: 0.057 µM; inhibition (INH) [19]: Active; inhibition (INH) [20]: Active |
| C[C@H](NCc1ccc(OCc2cccc(F)c2)cc1)C(N)=O [SAFINAMIDE] | – | – | – | – | – | – | – | – | – | – | – | – | inhibition (INH) [21]: Not Active |
| C[C@]12CCC(=O)C=C1CC[C@@H]1[C@@H]2[C@@H](O)C[C@]2(C=O)[C@@H](C(=O)CO)CC[C@@H]12 [ALDOSTERONE] | – | – | – | – | 10 nm/s | – | – | – | – | – | – | – | Papp at 18 h, 25 ug/ml (in vitro [22]): 12 nm/s |
